Paper PMC5641942 (Physiological Reports, 2017)
“Also recorded” adds a separate entry of the source. Where two headings read alike, the source gives them in different places.

What was measured:
[1] = target: T1, TauT (Homo sapiens, UniProt P31641); details: pH 7.4/7.4, 0.052 μmol/L taurine, 20 mg/mL test substance
T1 sequence (P31641 1-620): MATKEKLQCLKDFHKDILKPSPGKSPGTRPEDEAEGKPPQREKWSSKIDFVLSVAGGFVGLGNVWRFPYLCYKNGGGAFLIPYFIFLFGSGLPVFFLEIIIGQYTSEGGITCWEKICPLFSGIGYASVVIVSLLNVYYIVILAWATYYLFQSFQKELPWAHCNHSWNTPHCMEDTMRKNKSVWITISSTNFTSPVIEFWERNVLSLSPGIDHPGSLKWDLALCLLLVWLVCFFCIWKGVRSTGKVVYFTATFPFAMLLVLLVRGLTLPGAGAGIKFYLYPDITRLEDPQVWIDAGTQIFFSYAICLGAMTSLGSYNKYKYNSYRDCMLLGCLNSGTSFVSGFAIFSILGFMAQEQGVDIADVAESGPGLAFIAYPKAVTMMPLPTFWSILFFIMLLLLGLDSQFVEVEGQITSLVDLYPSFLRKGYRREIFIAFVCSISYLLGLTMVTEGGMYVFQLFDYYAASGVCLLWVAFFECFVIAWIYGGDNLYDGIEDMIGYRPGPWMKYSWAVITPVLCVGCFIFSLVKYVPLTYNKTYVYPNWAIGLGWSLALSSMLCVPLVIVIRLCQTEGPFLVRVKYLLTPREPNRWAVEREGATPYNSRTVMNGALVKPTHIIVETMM

[2] = target: T1, TauT; test: Taurine (52 nmol/L) uptake in Caco-2 cells at pH 7.4 in the presence of amino acids; assay type: cell-based; design: endogenous in cells; host or cells: Caco-2; details: pH 7.4, 0.052 μmol/L taurine
Description: […]. […] […].

[3] = target: T2, PAT1 (Homo sapiens, UniProt Q7Z2H8); details: pH 6.0, 100 μmol/L taurine
Protocol: (§1) After the 5 min incubation, the isotope‐containing buffer solution was removed and the wells were washed three times with 500 μL ice‐cold HEPES‐buffer, pH 7.4. The cells were detached using 200 μL of 0.1% Triton X‐100, and transferred to scintillation plastic vials and 2 mL of scintillation cocktail was added.

[4] = target: T2, PAT1; details: donor pH 6.0, 100 μmol/L taurine, 20 mg/mL test substance
[5] = test system: PAT1 and TauT; test: Taurine (52 nmol/L) uptake in Caco-2 cells at pH 6.0 in the presence of amino acids; assay type: cell-based, human; details: pH 6.0, 0.052 μmol/L taurine
Protocol: as §1

[6] = target: T3, PAT1 (Rattus norvegicus, UniProt Q924A5); test: Oral taurine pharmacokinetics with co-administered BCH or Pro and Sar; assay type: in vivo, male Sprague-Dawley rats; details: oral 30 mg/kg taurine, 200 mg/kg BCH
T3 construct: tissue Charles River Deutschland; host or cells: intestine of living male Sprague-Dawley rats (oral dosing)
Protocol: The pH was adjusted with NaOH or HCl to 7.40 ± 0.05.
The animals were acclimatized for a minimum of 5 days in groups of two and maintained on standard feed with free access to water. Prior to dosing, the animals were fasted for 16–20 h with free access to water.
Plasma was harvested immediately by 10 min of centrifugation at 4°C, 3600g (Multifuge 1 S‐R, Heraeus, Hanau, Germany) and stored in polypropylene tubes (Pony Vial, PerkinElmer, Waltham, MA, USA) at −20°C until analysed. At the end of the experiment, animals were sacrificed by spinal dislocation using a guillotine. Plasma samples were left to defrost and mixed with 4 mL of liquid scintillation cocktail. The samples were counted for 3 min on a scintillation counter from Tri‐Carb 2900TR.
Based on this V d1, volume of distribution in the central compartment 1; V d2, volume of distribution in the peripheral compartment 2; AUC, area under the curve; and K10, the elimination rate from the central department, were calculated using Phoenix® 6.3 version (Pharsight Corporation, A Certara Company, USA). […] C max and t max were found as mean values of the plasma concentration profiles within each group. […] The total clearance was calculated as dose divided by AUC.

T2 sequence (Q7Z2H8 whole entry): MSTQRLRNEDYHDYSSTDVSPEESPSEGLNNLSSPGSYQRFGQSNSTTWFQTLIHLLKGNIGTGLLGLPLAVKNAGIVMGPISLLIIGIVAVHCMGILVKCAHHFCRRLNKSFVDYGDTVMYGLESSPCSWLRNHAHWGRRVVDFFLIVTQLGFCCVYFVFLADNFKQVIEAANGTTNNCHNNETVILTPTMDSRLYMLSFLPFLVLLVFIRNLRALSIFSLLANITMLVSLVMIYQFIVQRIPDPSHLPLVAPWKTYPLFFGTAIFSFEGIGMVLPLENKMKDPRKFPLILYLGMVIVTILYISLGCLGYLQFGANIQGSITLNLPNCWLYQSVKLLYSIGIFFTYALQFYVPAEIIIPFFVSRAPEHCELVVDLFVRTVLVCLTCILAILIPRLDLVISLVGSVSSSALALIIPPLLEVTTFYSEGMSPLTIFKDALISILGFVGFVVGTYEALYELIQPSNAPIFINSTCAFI
T3 sequence (Q924A5 whole entry): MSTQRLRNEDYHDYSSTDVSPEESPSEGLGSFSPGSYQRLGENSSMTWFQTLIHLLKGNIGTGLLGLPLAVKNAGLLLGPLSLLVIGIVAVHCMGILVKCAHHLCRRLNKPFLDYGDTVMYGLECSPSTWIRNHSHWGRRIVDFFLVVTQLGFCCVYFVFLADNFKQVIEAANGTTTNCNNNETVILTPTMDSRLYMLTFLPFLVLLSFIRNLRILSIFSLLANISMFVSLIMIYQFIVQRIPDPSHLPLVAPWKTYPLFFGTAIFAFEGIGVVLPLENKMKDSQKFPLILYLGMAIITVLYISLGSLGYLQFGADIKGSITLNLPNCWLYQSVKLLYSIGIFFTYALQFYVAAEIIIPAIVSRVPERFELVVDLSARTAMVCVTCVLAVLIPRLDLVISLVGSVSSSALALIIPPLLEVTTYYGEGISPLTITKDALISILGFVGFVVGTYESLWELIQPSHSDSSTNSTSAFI

Row | Structure (SMILES) | effect on absorptive (A-B) permeability of taurine [1] | effect on taurine uptake ([2]; 10 mmol/L test substance) | effect on taurine uptake ([2]; 20 mg/mL test substance) | effect on taurine uptake ([3]; 10 mmol/L test substance) | effect on taurine uptake ([3]; 20 mg/mL test substance) | effect on absorptive (A-B) permeability of taurine [4] | effect on taurine uptake ([5]; 10 mmol/L test substance) | effect on taurine uptake ([5]; 20 mg/mL test substance) | effect on taurine plasma concentration versus time profile (AUC0‐tlast, t max, C max) [6] | taurine uptake ([2]; 10 mmol/L test substance)
1 | CNCC(=O)O [Sar, sarcosine] | did not significantly decrease | not affected | decreased | – | – | – | – | – | – | –
2 | O=C(O)[C@@H]1CCCN1 [Pro, L‐proline] | did not significantly decrease | not affected | – | – | – | – | – | – | – | –
3 | NC1(C(=O)O)CC2CCC1C2 (centres unmarked) [BCH, 2‐Amino‐2‐norbornanecarboxylic acid] | did not significantly decrease | not affected | – | not affected significantly | did not affect | did not alter | not affected | did not affect | similar; also recorded: did not have any significant effect | –
4 | O=C(O)Cc1c[nH]cn1 [IAA, imidazole‐4‐acetic acid] | – | significantly inhibited | – | not affected significantly | – | – | significantly inhibited | – | – | approximately 10 % of the control uptake
